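Step 1: Grow cells in 96-well plates. Step 2: Expose to compound for 48 hours at 5 concentrations. Step 3: Interpolate endpoints linearly; if unreached, use highest concentration. TGI marks complete inhibition of growth.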
How the values were obtained:
Assay in all cases: NCI anticancer screen, dose series, 48 h
A498 renal = system: A498 renal
ACHN renal = system: ACHN renal
BT-549 breast = system: BT-549 breast
CAKI-1 renal = system: CAKI-1 renal
CCRF-CEM leukemia = system: CCRF-CEM leukemia
DU-145 prostate = system: DU-145 prostate
HCC-2998 colon = system: HCC-2998 colon
HCT-116 colon = system: HCT-116 colon
HCT-15 colon = system: HCT-15 colon
HL-60(TB) leukemia = system: HL-60(TB) leukemia
HOP-62 NSCLC = system: HOP-62 NSCLC
HOP-92 NSCLC = system: HOP-92 NSCLC
IGROV1 ovarian = system: IGROV1 ovarian
K-562 leukemia = system: K-562 leukemia
KM12 colon = system: KM12 colon
LOX IMVI melanoma = system: LOX IMVI melanoma
M14 melanoma = system: M14 melanoma
MALME-3M melanoma = system: MALME-3M melanoma
MDA-MB-231 breast = system: MDA-MB-231 breast
MDA-MB-435 = system: MDA-MB-435
MDA-N = system: MDA-N
MOLT-4 leukemia = system: MOLT-4 leukemia
NCI-H23 lung = system: NCI-H23 lung
NCI-H522 lung = system: NCI-H522 lung
NCI/ADR-RES ovarian = system: NCI/ADR-RES ovarian
OVCAR-3 ovarian = system: OVCAR-3 ovarian
OVCAR-4 ovarian = system: OVCAR-4 ovarian
OVCAR-5 ovarian = system: OVCAR-5 ovarian
OVCAR-8 ovarian = system: OVCAR-8 ovarian
PC-3 prostate = system: PC-3 prostate
RPMI-8226 leukemia = system: RPMI-8226 leukemia
RXF 393 renal = system: RXF 393 renal
SF-268 CNS = system: SF-268 CNS
SF-295 CNS = system: SF-295 CNS
SK-MEL-2 melanoma = system: SK-MEL-2 melanoma
SK-MEL-28 melanoma = system: SK-MEL-28 melanoma
SK-OV-3 ovarian = system: SK-OV-3 ovarian
SN12C renal = system: SN12C renal
SNB-19 CNS = system: SNB-19 CNS
SNB-75 CNS = system: SNB-75 CNS
SR leukemia = system: SR leukemia
SW-620 colon = system: SW-620 colon
T-47D breast = system: T-47D breast
TK-10 renal = system: TK-10 renal
U251 CNS = system: U251 CNS
UACC-257 melanoma = system: UACC-257 melanoma
UO-31 renal = system: UO-31 renal
786-0 renal = system: 786-0 renal
A549 NSCLC = system: A549 NSCLC
COLO 205 colon = system: COLO 205 colon
NCI-H460 lung = system: NCI-H460 lung
SK-MEL-5 melanoma = system: SK-MEL-5 melanoma
UACC-62 melanoma = system: UACC-62 melanoma

O=C1Nc2ccc(Cl)cc2/C1=C\c1c(Cl)nc2sccn12
TGI (A498 renal): 8.66 µM
TGI (ACHN renal): > 100 µM
TGI (BT-549 breast): > 100 µM
TGI (CAKI-1 renal): > 100 µM
TGI (CCRF-CEM leukemia): 62.3 µM
TGI (DU-145 prostate): > 100 µM
TGI (HCC-2998 colon): > 100 µM
TGI (HCT-116 colon): 34 µM
TGI (HCT-15 colon): > 100 µM
TGI (HL-60(TB) leukemia): 33.7 µM
TGI (HOP-62 NSCLC): 96.3 µM
TGI (HOP-92 NSCLC): > 100 µM
TGI (IGROV1 ovarian): > 100 µM
TGI (K-562 leukemia): > 100 µM
TGI (KM12 colon): 23.4 µM
TGI (LOX IMVI melanoma): > 100 µM
TGI (M14 melanoma): > 100 µM
TGI (MALME-3M melanoma): > 100 µM
TGI (MDA-MB-231 breast): > 100 µM
TGI (MDA-MB-435): 3.22 µM
TGI (MDA-N): 8.42 µM
TGI (MOLT-4 leukemia): 51.9 µM
TGI (NCI-H23 lung): > 100 µM
TGI (NCI-H522 lung): > 100 µM
TGI (NCI/ADR-RES ovarian): 17.6 µM
TGI (OVCAR-3 ovarian): 12.4 µM
TGI (OVCAR-4 ovarian): > 100 µM
TGI (OVCAR-5 ovarian): 78.2 µM
TGI (OVCAR-8 ovarian): > 100 µM
TGI (PC-3 prostate): > 100 µM
TGI (RPMI-8226 leukemia): > 100 µM
TGI (RXF 393 renal): > 100 µM
TGI (SF-268 CNS): > 100 µM
TGI (SF-295 CNS): 25.3 µM
TGI (SK-MEL-2 melanoma): > 100 µM
TGI (SK-MEL-28 melanoma): > 100 µM
TGI (SK-OV-3 ovarian): > 100 µM
TGI (SN12C renal): > 100 µM
TGI (SNB-19 CNS): > 100 µM
TGI (SNB-75 CNS): > 100 µM
TGI (SR leukemia): > 100 µM
TGI (SW-620 colon): > 100 µM
TGI (T-47D breast): > 100 µM
TGI (TK-10 renal): > 100 µM
TGI (U251 CNS): > 100 µM
TGI (UACC-257 melanoma): > 100 µM
TGI (UO-31 renal): > 100 µM

Nc1nc2c(c(=O)[nH]1)C(c1ccc(Cl)cc1)C=C(c1ccccc1)N2 (stereo not given)
TGI (786-0 renal): 74.5 µM
TGI (A498 renal): > 100 µM
TGI (A549 NSCLC): > 100 µM
TGI (ACHN renal): > 100 µM
TGI (BT-549 breast): > 100 µM
TGI (CAKI-1 renal): > 100 µM
TGI (CCRF-CEM leukemia): 93.4 µM
TGI (COLO 205 colon): 45.6 µM
TGI (DU-145 prostate): > 100 µM
TGI (HCC-2998 colon): 34.2 µM
TGI (HCT-116 colon): 41.8 µM
TGI (HCT-15 colon): > 100 µM
TGI (HL-60(TB) leukemia): > 100 µM
TGI (HOP-92 NSCLC): 54.7 µM
TGI (K-562 leukemia): 60 µM
TGI (LOX IMVI melanoma): > 100 µM
TGI (MDA-MB-231 breast): 43.6 µM
TGI (MDA-MB-435): 41.8 µM
TGI (MDA-N): 47.7 µM
TGI (NCI-H23 lung): 59.1 µM
TGI (NCI-H460 lung): 71.7 µM
TGI (OVCAR-4 ovarian): > 100 µM
TGI (RPMI-8226 leukemia): 39.3 µM
TGI (RXF 393 renal): > 100 µM
TGI (SF-295 CNS): > 100 µM
TGI (SK-MEL-28 melanoma): 60.6 µM
TGI (SK-MEL-5 melanoma): 55.8 µM
TGI (SK-OV-3 ovarian): 54.9 µM
TGI (SN12C renal): 46.6 µM
TGI (SNB-19 CNS): > 100 µM
TGI (SR leukemia): 51.8 µM
TGI (SW-620 colon): 61.9 µM
TGI (T-47D breast): 72.7 µM
TGI (TK-10 renal): > 100 µM
TGI (U251 CNS): 39.4 µM
TGI (UACC-257 melanoma): > 100 µM
TGI (UACC-62 melanoma): 78.3 µM
TGI (UO-31 renal): > 100 µM
